Measured values: ChEMBL document CHEMBL1201862, “PubChem BioAssay data set” (2004)
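The compound was tested at five concentrations on cells cultured in 96-well plates, with a 48-hour exposure period. GI50 marks 50% less growth.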 The source made the active and inactive calls. Rule as the data show it: active = GI50 up to about 1.1 µM and inactive = higher.

Key:
Test in all cases: NCI-60 cell line screen, 48 h
[1] = test system: SF-539
[2] = test system: A549
[3] = test system: SW-620
[4] = test system: HCC 2998
[5] = test system: PC-3
[6] = test system: OVCAR-8
[7] = test system: UACC-257
[8] = test system: A498
[9] = test system: CAKI-1
[10] = test system: SF-295
[11] = test system: KM12
[12] = test system: MDA-N
[13] = test system: HOP-62
[14] = test system: OVCAR-3
[15] = test system: SNB-75
[16] = test system: Hs-578T
[17] = test system: HT-29
[18] = test system: SF-268
[19] = test system: T47D
[20] = test system: M14
[21] = test system: Malme-3M
[22] = test system: IGROV-1
[23] = test system: SNB-19
[24] = test system: MDA-MB-435
[25] = test system: MCF7
[26] = test system: K562
[27] = test system: ACHN
[28] = test system: COLO 205
[29] = test system: RPMI-8226
[30] = test system: SK-OV-3
[31] = test system: HL-60
[32] = test system: U-251
[33] = test system: SK-MEL-28
[34] = test system: UACC-62
[35] = test system: 786-0
[36] = test system: MOLT-4
[37] = test system: UO-31
[38] = test system: OVCAR-4
[39] = test system: BT-549
[40] = test system: EKVX
[41] = test system: SR
[42] = test system: NCI-H522
[43] = test system: NCI/ADR-RES
[44] = test system: SK-MEL-2
[45] = test system: CCRF-CEM
[46] = test system: NCI-H460
[47] = test system: DU-145
[48] = test system: OVCAR-5
[49] = test system: HCT-116
[50] = test system: HCT-15
[51] = test system: HOP-92
[52] = test system: SK-MEL-5
[53] = test system: SN12C
[54] = test system: LOX IMVI
[55] = test system: MDA-MB-231
[56] = test system: NCI-H226
[57] = test system: NCI-H23

With COC(=O)C1C(OC(=O)c2ccccc2)CC2CCC1N2C(N)=O (configuration not stated) the GI50 [1] was > 100 µM (inactive), the GI50 [2] was > 100 µM (inactive) and the GI50 [3] was > 100 µM (inactive). The GI50 [4] was > 100 µM (inactive), the GI50 [5] was > 100 µM (inactive) and the GI50 [6] was > 100 µM (inactive). The GI50 [7] was > 100 µM (inactive), the GI50 [8] was > 100 µM (inactive) and the GI50 [9] was > 100 µM (inactive). The GI50 [10] was > 100 µM (inactive), the GI50 [11] was > 100 µM (inactive) and the GI50 [12] was > 100 µM (inactive). The GI50 [13] was > 100 µM (inactive), the GI50 [14] was > 100 µM (inactive) and the GI50 [15] was > 100 µM (inactive). The GI50 [16] was > 100 µM (inactive), the GI50 [17] was > 100 µM (inactive) and the GI50 [18] was > 100 µM (inactive). For the same molecule, the GI50 [19] was > 100 µM (inactive), the GI50 [20] was > 100 µM (inactive) and the GI50 [21] was > 100 µM (inactive). For the same molecule, the GI50 [22] was > 100 µM (inactive), the GI50 [23] was > 100 µM (inactive) and the GI50 [24] was > 100 µM (inactive). The GI50 [25] was > 100 µM (inactive), the GI50 [26] was > 100 µM (inactive) and the GI50 [27] was > 100 µM (inactive). For the same molecule, the GI50 [28] was > 100 µM (inactive), the GI50 [29] was > 100 µM (inactive) and the GI50 [30] was > 100 µM (inactive). The GI50 [31] was > 100 µM (inactive), the GI50 [32] was > 100 µM (inactive) and the GI50 [33] was > 100 µM (inactive). For the same molecule, the GI50 [34] was > 100 µM (inactive), the GI50 [35] was > 100 µM (inactive) and the GI50 [36] was > 100 µM (inactive). For the same molecule, the GI50 [37] was > 100 µM (inactive), the GI50 [38] was > 100 µM (inactive) and the GI50 [39] was > 100 µM (inactive). For the same molecule, the GI50 [40] was > 100 µM (inactive), the GI50 [41] was > 100 µM (inactive) and the GI50 [42] was > 100 µM (inactive). For the same molecule, the GI50 [43] was > 100 µM (inactive), the GI50 [44] was > 100 µM (inactive) and the GI50 [45] was > 100 µM (inactive). The GI50 [46] was > 100 µM (inactive), the GI50 [47] was > 100 µM (inactive) and the GI50 [48] was > 100 µM (inactive). The GI50 [49] was > 100 µM (inactive), the GI50 [50] was > 100 µM and the GI50 [51] was > 100 µM (inactive). The GI50 [52] was > 100 µM (inactive), the GI50 [53] was > 100 µM (inactive) and the GI50 [54] was > 100 µM (inactive). The GI50 [55] was > 100 µM (inactive), the GI50 [56] was > 100 µM (inactive) and the GI50 [57] was > 100 µM (inactive).
